Data reported in patent publication US20080138395A1, “Pharmaceutical Composition for the Prevention and Control of Cancer” (priority 2005, published 2008).

Test system: H69: human, small cell lung carcinoma
Experiment: Apoptosis (Annexin testing system) and defective cells in H69 tumor cells in vitro
Type: cell-based
Settings: 10 days of treatment
Description: The effect of reduced glutathion (G-SH) and anthocyans and betacyans on tumor cell lines, specifically H69: human, small cell lung carcinoma, was examined by in vitro studies, both individually and with various combinations of the ingredient. G-SH and betalain were used in the form of dry extract from beta vulgaris (product: Betatom by Messrs. Sprüh-Atom Schumann & Sohn GmbH, Karlsruhe) and, for purposes of comparison, anthocyans in the form of dry extract from cassis (black currant) and vaccinium (blueberry). The tumor cells were sown in vitro in DMEM with 10% FCS. The final concentration of G-SH, Betatom, cassis and vaccinium, the substances added, was 1 mM. Apoptosis was measured with an Annexin testing system. All tests were repeated once. The effect on H69 tumor cells may be gathered from the table below. After treatment of the cells for ten days, the number both of apoptotic and defective cells was clearly higher in comparison with untreated controls.

[1] = 1 mM, difference to untreated control
[2] = final concentration of substances added 1 mM, DMEM with 10% FCS

## N[C@@H](CCC(=O)N[C@@H](CS)C(=O)NCC(=O)O)C(=O)O [GSH, gamma glutamyl cysteinyl glycin]
[1]
  apoptotic cells: variation compared with control (%): −5%
  defective cells: variation compared with control (%): 8.9%
[2]
  apoptotic cells (% of total cells): 21.9 % of total cells
  defective cells (% of total cells): 37.9 % of total cells
